We go through ten compounds from ChEMBL document CHEMBL1201862, “PubChem BioAssay data set” (2004).

Some test systems named below: NCI-H460; SK-OV-3; 786-0; HCC 2998; CCRF-CEM; SR; RXF 393; HOP-92; SK-MEL-28; UO-31; A549; UACC-257; T47D; SF-539; SK-MEL-5; KM12; ACHN; IGROV-1; NCI-H226; M14.
Common to all, as to assay: growth of human tumour cells (NCI), 48 h

The structures appear in SMILES notation.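 Values below derive from 48-hour exposures of cells grown in 96-well plates, with endpoints linearly interpolated between the two concentrations bracketing the appropriate inhibition level. GI50 is the concentration that inhibits growth by half.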 The source made the active and inactive calls. Cut-off read from the data, not from the text of the source: active = GI50 up to about 1.1 µM and inactive = higher.

With `N#Cc1c(-c2ccc(Cl)cc2)cc(-c2ccc(Nc3ccnc4cc(Cl)ccc34)cc2)[nH]c1=O`, the GI50 is > 100 µM (inactive) with NCI-H460; 34.7 µM (inactive) in the experiment on SK-OV-3; 17.6 µM (inactive) in the experiment with 786-0; > 100 µM (inactive) in the experiment with HCC 2998; 16 µM (inactive) with CCRF-CEM; > 52.5 µM (inactive) in the experiment with SR. The GI50 was 30.4 µM (inactive) with RXF 393; 18.1 µM (inactive) in the experiment on HOP-92; > 100 µM (inactive) in the experiment with SK-MEL-28; > 100 µM (inactive) in the experiment with UO-31; > 100 µM (inactive) with A549; > 100 µM (inactive) in the experiment on UACC-257. The GI50 is > 100 µM (inactive) in the experiment with T47D; > 95.7 µM (inactive) in the experiment on SF-539; > 100 µM (inactive) with SK-MEL-5; > 61 µM (inactive) with KM12; 32 µM (inactive) in the experiment on ACHN; > 100 µM (inactive) with IGROV-1. The GI50 in the experiment with NCI-H226 and in the experiment on M14 was > 100 µM (inactive) each time.
For `C=C(Cl)C(Cl)(CBr)CCC(Cl)C(C)(C)Cl` (stereo not given), the GI50 in the experiment with NCI-H460 was 1.19 µM (inactive); in the experiment on SK-OV-3 it was 25.8 µM (inactive); with 786-0, 0.388 µM (active); in the experiment with HCC 2998, 4.52 µM (inactive); in the experiment with CCRF-CEM it was 8.63 µM (inactive); in the experiment on SR, 15.1 µM (inactive). Moreover, the GI50 in the experiment on RXF 393 was 1.35 µM (inactive); with HOP-92, 1.16 µM (inactive); in the experiment with SK-MEL-28, 1.69 µM (inactive); in the experiment with UO-31 it was 2.3 µM (inactive); with A549, 2.96 µM (inactive); in the experiment on UACC-257, 1.57 µM (inactive). Besides, the GI50 was 0.256 µM (active) in the experiment with T47D; 0.443 µM (active) in the experiment with SF-539; 10.6 µM (inactive) with SK-MEL-5; 0.375 µM (active) in the experiment on KM12; 1.77 µM (inactive) in the experiment with ACHN; 6.84 µM (inactive) with IGROV-1. In addition, the GI50 in the experiment on NCI-H226 was 22.2 µM (inactive); in the experiment with M14, 17.9 µM (inactive).
On to `O=C(N/N=C\c1ccc(Cl)cc1)Nc1ccc2ccccc2c1`, for which the GI50 in the experiment with NCI-H460 was 28.5 µM (inactive); in the experiment with SK-OV-3 it was 94.6 µM (inactive); in the experiment with 786-0, 19.3 µM (inactive); in the experiment on HCC 2998 it was 67.5 µM (inactive); with CCRF-CEM, > 100 µM (inactive); with SR, 36.2 µM (inactive). For the same compound, the GI50 is 27.6 µM (inactive) in the experiment on RXF 393; 29.6 µM (inactive) in the experiment with HOP-92; 54.7 µM (inactive) in the experiment on SK-MEL-28; 53.7 µM (inactive) in the experiment on UO-31; 52 µM (inactive) with A549; 95.5 µM (inactive) with UACC-257. Besides, the GI50 in the experiment on T47D was > 100 µM (inactive); in the experiment with SF-539, 27.8 µM (inactive); in the experiment with SK-MEL-5 it was > 100 µM (inactive); in the experiment on KM12, 79.3 µM (inactive); with ACHN, 43.6 µM (inactive); in the experiment on IGROV-1, 61.5 µM (inactive). For the same compound, the GI50 with NCI-H226 was > 100 µM (inactive); with M14, 59.2 µM (inactive).
As for `CC(=O)OC1COC(n2nc(/C=C/c3ccc(Cl)cc3)c(=O)n(/N=C/c3ccccc3)c2=S)C(OC(C)=O)C1OC(C)=O` (stereo not given), the GI50 with NCI-H460, in the experiment on SK-OV-3, with 786-0, with HCC 2998, with CCRF-CEM and in the experiment with SR was > 100 µM (inactive) throughout. Besides, the GI50 with RXF 393, in the experiment on HOP-92, with SK-MEL-28, in the experiment on UO-31, in the experiment on A549 and in the experiment with UACC-257 was > 100 µM (inactive) throughout. The GI50 in the experiment on T47D, with SF-539, in the experiment with SK-MEL-5, in the experiment with KM12, with ACHN and in the experiment with IGROV-1 was > 100 µM (inactive) each time. In addition, the GI50 with NCI-H226 and with M14 was > 100 µM (inactive) in each case.
On to `COc1cccc2c(Nc3ccc(S(=O)(=O)NC(C)=O)cc3)c3ccc([N+](=O)[O-])cc3nc12`, for which the GI50 in the experiment on NCI-H460 is 32.3 µM (inactive); with SK-OV-3, > 100 µM (inactive); in the experiment with 786-0, 33.3 µM (inactive); in the experiment on HCC 2998, 44.9 µM (inactive); in the experiment on CCRF-CEM it was 55.5 µM (inactive); in the experiment with SR, 4.15 µM (inactive). Further, the GI50 was 97.9 µM (inactive) in the experiment on RXF 393; 26.2 µM (inactive) with HOP-92; > 48.4 µM (inactive) with SK-MEL-28; 12.4 µM (inactive) in the experiment with UO-31; 39.4 µM (inactive) with A549; 25.9 µM (inactive) in the experiment on UACC-257. Moreover, the GI50 in the experiment on T47D is 94.4 µM (inactive); with SF-539, 60.5 µM (inactive); in the experiment with SK-MEL-5 it was 22.7 µM (inactive); in the experiment with KM12, 11 µM (inactive); in the experiment with ACHN, 26.2 µM (inactive); with IGROV-1, 11.3 µM (inactive). Further, the values for the GI50 in the experiment on NCI-H226 and in the experiment with M14 were 29.2 µM (inactive) and 53.1 µM (inactive), respectively.
For the compound `CCOP1(=O)C=C(Sc2ccc([N+](=O)[O-])cc2[N+](=O)[O-])C(C)(C)O1` (stereo not given), the GI50 in the experiment on NCI-H460 was 21 µM (inactive); in the experiment with SK-OV-3, 27.2 µM (inactive); with 786-0, 8.81 µM (inactive); with HCC 2998, 18.6 µM (inactive); in the experiment on CCRF-CEM it was 2.42 µM (inactive); in the experiment with SR it was 3.59 µM (inactive). Also, the GI50 was 17.9 µM (inactive) with RXF 393; 7.26 µM (inactive) with HOP-92; 16.2 µM (inactive) in the experiment on SK-MEL-28; 14.9 µM (inactive) in the experiment with UO-31; 19.9 µM (inactive) in the experiment on A549; 12.3 µM (inactive) in the experiment on UACC-257. Also, the GI50 with T47D is 14.6 µM (inactive); in the experiment with SF-539, 11.7 µM (inactive); with SK-MEL-5, 9.86 µM (inactive); with KM12, 16.5 µM (inactive); in the experiment on ACHN, 14.5 µM (inactive); in the experiment on IGROV-1, 16.5 µM (inactive). The GI50 in the experiment with NCI-H226 is 25.5 µM (inactive); in the experiment with M14, 11.9 µM (inactive).
Consider `CCCN(CCCCN1C(=O)c2ccccc2C1=O)CC1COc2ccccc2O1` (stereo not given), for which the GI50 in the experiment with NCI-H460 was 53.5 µM (inactive); in the experiment on SK-OV-3, > 100 µM (inactive); with 786-0, > 100 µM (inactive); in the experiment on HCC 2998, 83.2 µM (inactive); with CCRF-CEM it was 25.8 µM (inactive); with SR, 25.1 µM (inactive). Besides, the GI50 is 94.4 µM (inactive) in the experiment with RXF 393; 29.4 µM (inactive) in the experiment on HOP-92; 88.5 µM (inactive) in the experiment with SK-MEL-28; 51.9 µM (inactive) in the experiment with UO-31; > 100 µM (inactive) in the experiment with A549; 65.9 µM (inactive) in the experiment with UACC-257. Also, the GI50 with T47D was 42.9 µM (inactive); in the experiment on SF-539 it was 83.2 µM (inactive); in the experiment with SK-MEL-5, 28.6 µM (inactive); in the experiment on KM12 it was > 100 µM (inactive); with ACHN, > 100 µM (inactive); with IGROV-1, > 100 µM (inactive). Also, the GI50 in the experiment with NCI-H226 is 53 µM (inactive); in the experiment with M14, > 100 µM (inactive).
With `N#CC(NC12CC3CC(CC(C3)C1)C2)c1ccccc1` (stereo not given), the GI50 in the experiment with NCI-H460 is > 100 µM (inactive); with SK-OV-3, > 100 µM (inactive); with 786-0 it was > 100 µM (inactive); with HCC 2998 it was > 100 µM (inactive); in the experiment on CCRF-CEM, 20.8 µM (inactive); in the experiment with SR it was > 100 µM (inactive). For the same compound, the GI50 with RXF 393 is > 100 µM (inactive); in the experiment on HOP-92, 94.2 µM (inactive); in the experiment on SK-MEL-28 it was > 100 µM (inactive); in the experiment with UO-31 it was > 100 µM (inactive); in the experiment with A549, > 100 µM (inactive); in the experiment on UACC-257 it was > 100 µM (inactive). Further, the GI50 in the experiment with T47D, in the experiment on SF-539, with SK-MEL-5, with KM12, in the experiment with ACHN and in the experiment on IGROV-1 was > 100 µM (inactive) in each case. Besides, the GI50 with NCI-H226 and with M14 was > 100 µM (inactive) each time.
Regarding `Nc1ccn(C=C=CCO)c(=O)n1`, the GI50 is > 100 µM (inactive) in the experiment on NCI-H460; > 100 µM (inactive) in the experiment on SK-OV-3; > 100 µM (inactive) with 786-0; > 78.5 µM (inactive) in the experiment on HCC 2998; 7.43 µM (inactive) in the experiment with CCRF-CEM; 190 µM (inactive) with SR. Moreover, the GI50 was > 100 µM (inactive) in the experiment on RXF 393; > 66.4 µM (inactive) in the experiment on HOP-92; > 100 µM (inactive) in the experiment on SK-MEL-28; > 100 µM (inactive) in the experiment on UO-31; > 100 µM (inactive) in the experiment with A549; > 100 µM (inactive) with UACC-257. Further, the GI50 is > 93.8 µM (inactive) in the experiment with T47D; > 100 µM (inactive) in the experiment on SF-539; > 100 µM (inactive) in the experiment with SK-MEL-5; > 100 µM (inactive) in the experiment with KM12; > 100 µM (inactive) with ACHN; > 100 µM (inactive) in the experiment on IGROV-1. Further, the GI50 in the experiment on NCI-H226 and with M14 was > 100 µM (inactive) in each case.
For `CC(=O)/C(C)=N/NC(=O)c1ccccc1O`, the GI50 with NCI-H460 is > 10 µM (inactive); with SK-OV-3, > 10 µM (inactive); with 786-0, > 10 µM (inactive); in the experiment on HCC 2998 it was > 10 µM (inactive); in the experiment on CCRF-CEM, 23 µM (inactive); in the experiment with SR it was 41.6 µM (inactive). Moreover, the GI50 in the experiment with RXF 393, in the experiment with HOP-92, in the experiment with SK-MEL-28, with UO-31, in the experiment with A549 and in the experiment on UACC-257 was > 10 µM (inactive) throughout. Moreover, the GI50 is > 100 µM (inactive) in the experiment on T47D; > 10 µM (inactive) with SF-539; 95.1 µM (inactive) with SK-MEL-5; > 10 µM (inactive) in the experiment on KM12; > 10 µM (inactive) in the experiment on ACHN; 75 µM (inactive) in the experiment on IGROV-1. Also, the GI50 in the experiment on NCI-H226 and in the experiment on M14 was > 10 µM (inactive) in each case.
